From PubChem BioAssay (NCI)
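Briefly, cells in 96-well plates were exposed to five compound concentrations for 48 h, and endpoints were estimated by linear interpolation. Abbreviation: GI50, concentration required for 50% inhibition of growth. Definition used: TGI = concentration required for complete inhibition of growth.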

Tests used:
Test in all cases: growth of human tumour cells (NCI), 48 h
[1] = system: CCRF-CEM leukemia
[2] = system: SF-295 CNS
[3] = system: SK-MEL-28 melanoma
[4] = system: SN12C renal
[5] = system: M14 melanoma
[6] = system: NCI-H226 lung
[7] = system: NCI-H522 lung
[8] = system: HS 578T breast
[9] = system: MCF7 breast
[10] = system: T-47D breast

Row | Structure (SMILES) | TGI [1] [µM] | TGI [2] [µM] | TGI [3] [µM] | TGI [4] [µM] | TGI [5] [µM] | TGI [6] [µM] | TGI [7] [µM] | GI50 [1] [µM] | GI50 [2] [µM] | GI50 [3] [µM] | GI50 [4] [µM] | GI50 [7] [µM] | GI50 [8] [µM] | TGI [8] [µM] | GI50 [9] [µM] | TGI [9] [µM] | GI50 [5] [µM] | GI50 [10] [µM] | TGI [10] [µM] | GI50 [6] [µM]
1 | COc1c(Sc2ccccc2)cc(Sc2ccccc2)c2cccnc12 | 54.5 | 78.6 | > 100 | 97.6 | > 100 | – | – | – | – | – | – | – | – | – | – | – | – | – | – | –
2 | CN1C(=O)C2C=CC1C1CCC2N(C)C1=O (configuration not stated) | > 100 | > 100 | > 100 | > 100 | > 100 | > 100 | > 100 | – | – | – | – | – | – | – | – | – | – | – | – | –
3 | COC(=O)c1ccc(CN2C(=O)C(Cl)=C(Nc3ccc(OC)c(Cl)c3)C2=O)cc1 | > 50 | > 50 | 30.7 | 33.7 | > 50 | – | 21.5 | > 50 | 20.4 | 8.48 | 9.04 | 3.84 | 43 | > 50 | 12.6 | > 50 | 32.6 | – | – | –
4 | COc1cc2c3c(ncc2c(OC)c1OC)-c1cc2c(cc1C3)OCO2 | – | > 100 | > 100 | – | > 100 | – | – | – | 29.8 | 39.1 | – | – | 13.3 | 37.5 | 15.6 | 59 | > 100 | 26.2 | 89.8 | –
5 | COC(=O)[C@@]1(C)CCC[C@]2(C(=O)O)C3Cc4occc4[C@H](C)[C@@H]3CCC21 (some centres not stated) | > 100 | > 100 | > 100 | > 100 | > 100 | > 100 | – | – | – | – | – | – | – | > 100 | – | – | – | – | > 100 | –
6 | CCCCN(CCCC)CCc1c(C)cc(C)c(CCN(CCCC)CCCC)c1O | > 100 | 6.97 | > 100 | 9.43 | 20.8 | 37.8 | 7.54 | 3.12 | 2.2 | 3.97 | 2.85 | 2.59 | 2.7 | 8.59 | 2.39 | 8.13 | 3.15 | – | – | 3.16
7 | CC1=NOC(=O)C1N=Nc1ccc(Br)c(C)c1 (configuration not stated) | 34.3 | 66.4 | 48.7 | 48.5 | 36.1 | 53.4 | – | – | – | – | – | – | – | – | – | – | – | – | – | –
8 | COc1ccc2ccccc2c1CN1CCOCCOCCN(Cc2c(OC)ccc3ccccc23)CCOCCOCC1 | > 100 | > 100 | > 65 | > 100 | 32.5 | > 100 | > 89.8 | – | – | – | – | – | – | – | – | – | – | – | – | –
9 | COC(=O)[C@H]1N[C@@H](C(=O)OC)C23CCC[C@H]2CC[C@]1(C(OC)OC)C3 | > 100 | > 100 | > 100 | > 100 | > 100 | > 100 | > 100 | – | – | – | – | – | – | – | – | – | – | – | – | –
10 | Clc1ccc2c(c1)[nH]c1c2nc2sccn21 | > 100 | > 100 | > 100 | > 100 | > 100 | > 100 | > 100 | – | – | – | – | – | – | – | – | – | – | – | – | –
11 | Cc1ccc(/C=C2/NC(=S)SC2=O)cc1 | – | > 100 | > 100 | > 100 | > 100 | > 100 | – | – | – | – | – | – | – | – | – | > 100 | – | – | > 100 | –
12 | O=C(O)Cc1ccccc1CCc1ccccc1Cl | > 100 | > 100 | > 100 | > 100 | > 100 | > 100 | > 100 | – | – | – | – | – | – | – | – | – | – | – | – | –
13 | CCN(CC)CCOc1c(OC)c(Br)cc2c(C)c(C(=O)OC)oc12 | 0.72 | 2.99 | – | 2.36 | 4.4 | 3.39 | 11.9 | 0.154 | 1.18 | – | 0.92 | 1.32 | 1.44 | 3.82 | 1.63 | 5.74 | 1.18 | 0.188 | 0.488 | 1.16
14 | [N-]=[N+]=CC(=O)COC(=O)c1ccccc1 | > 100 | > 100 | > 100 | > 100 | > 100 | > 100 | > 100 | – | – | – | – | – | – | – | – | > 100 | – | – | > 100 | –
15 | CCOC(=O)c1c2c(n(Cc3ccccc3)c1C)-c1nc(Cc3ccccc3)[nH]c1C(=O)C2=O | 2.97 | 4.14 | 3.42 | 3.21 | 3.49 | 4.39 | – | 0.962 | 1.92 | 2 | 1.58 | – | 2.26 | 5.34 | 1.66 | 4.34 | 1.75 | 0.496 | 2.64 | 1.67
16 | CCCCCCCCCCCCCCCCCCNC(=O)OCC(CNS(=O)(=O)CCC[n+]1cccc2ccccc21)COC (configuration not stated) | – | 30.3 | > 35.1 | 20.8 | 25.9 | 3.84 | – | – | – | – | – | – | – | 5.35 | – | 3.68 | – | – | > 100 | –
17 | CSc1nsc(S/C=C\C(=O)c2ccc(C)cc2)n1 | – | 40.4 | > 45.1 | 35.9 | 30.8 | 55.5 | > 59.5 | – | 18.2 | 13.4 | 18.3 | 12.2 | 0.187 | 6.33 | – | 35.4 | 15.5 | 23 | > 62.2 | 20.7
18 | CC[C@]1(O)C[C@@H]2CN(CCc3c([nH]c4ccccc34)[C@@](C(=O)OC)(c3cc4c(cc3OC)N(C)[C@H]3[C@@](O)(C(N)=O)[C@H](O)[C@]5(CC)[C@@H]6C[C@@H]6CN6CC[C@]43[C@@H]65)C2)C1 | > 28.8 | 2.09 | > 33.3 | > 33.3 | 0.956 | > 23.7 | < 0.00333 | < 0.00333 | 0.00441 | 6.47 | 0.0373 | < 0.00333 | < 0.00333 | > 21.3 | < 0.00333 | > 18.2 | 0.00605 | – | – | 0.0382
19 | O=C(CSc1nc(-c2ccccc2)c(-c2ccccc2)[nH]1)NNC(=S)Nc1ccccc1 | > 100 | > 100 | > 100 | > 100 | > 100 | > 100 | > 100 | – | – | – | – | – | – | – | – | – | – | – | – | –
